Assay results taken from the NIST ThermoML archive (doi:10.1021/acs.jced.8b00521).

Experiment: xn = mol fraction of the nth substance listed
Details: Liquid; for viscosity: Capillary tube (Ostwald / Ubbelohde) method; for mass density: Vibrating tube method

CCCCCCCC(=O)OCC [ethyl octanoate] + CCCCCCCCCCCC(=O)OC
Details | mass density, 313.15 K [kg/m3] | mass density, 323.15 K [kg/m3] | viscosity, 313.15 K [mPa·s] | viscosity, 323.15 K [mPa·s]
100 kPa, x2 = 0.1 | – | 841 | – | 1.03
100 kPa, x2 = 0.1999 | – | 842 | – | 1.09
100 kPa, x2 = 0.3001 | – | 842 | – | 1.13
100 kPa, x2 = 0.4 | – | 843 | – | 1.19
100 kPa, x2 = 0.4999 | – | 843 | – | 1.26
100 kPa, x2 = 0.6001 | – | 843 | – | 1.33
100 kPa, x2 = 0.6999 | – | 844 | – | 1.42
100 kPa, x2 = 0.8001 | – | 844 | – | 1.51
100 kPa, x2 = 0.9 | – | 844 | – | 1.61
2930 kPa, x2 = 0.1 | – | 843 | – | 1.04
2930 kPa, x2 = 0.1999 | – | 843 | – | 1.11
2940 kPa, x2 = 0.3001 | – | 844 | – | 1.18
2960 kPa, x2 = 0.6999 | – | 845 | – | 1.45
2980 kPa, x2 = 0.6001 | – | 845 | – | 1.38
3010 kPa, x2 = 0.4999 | – | 844 | – | 1.31
3020 kPa, x2 = 0.4 | – | 844 | – | 1.24
3020 kPa, x2 = 0.9 | – | 846 | – | 1.65
3040 kPa, x2 = 0.8001 | – | 846 | – | 1.57
6010 kPa, x2 = 0.8001 | – | 848 | – | 1.61
6020 kPa, x2 = 0.3001 | – | 845 | – | 1.22
6030 kPa, x2 = 0.4999 | – | 846 | – | 1.35
6030 kPa, x2 = 0.6999 | – | 847 | – | 1.5
6040 kPa, x2 = 0.6001 | – | 847 | – | 1.42
6060 kPa, x2 = 0.1 | – | 844 | – | 1.08
6060 kPa, x2 = 0.1999 | – | 845 | – | 1.15
6080 kPa, x2 = 0.4 | – | 846 | – | 1.29
6080 kPa, x2 = 0.9 | – | 849 | – | 1.7
8900 kPa, x2 = 0.1 | 855 | – | 1.33 | –
8900 kPa, x2 = 0.1999 | 855 | – | 1.42 | –
8930 kPa, x2 = 0.6999 | – | 849 | – | 1.56
8960 kPa, x2 = 0.6999 | 858 | – | 1.93 | –
8980 kPa, x2 = 0.8001 | – | 850 | – | 1.67
8980 kPa, x2 = 0.9 | – | 850 | – | 1.75
9000 kPa, x2 = 0.6001 | 857 | – | 1.81 | –
9010 kPa, x2 = 0.4 | 856 | – | 1.59 | –
9010 kPa, x2 = 0.9 | 859 | – | 2.15 | –
9030 kPa, x2 = 0.3001 | 855 | – | 1.52 | –
9030 kPa, x2 = 0.6001 | – | 849 | – | 1.46
9030 kPa, x2 = 0.8001 | 858 | – | 2.06 | –
9040 kPa, x2 = 0.1 | – | 846 | – | 1.11
9050 kPa, x2 = 0.4999 | 857 | – | 1.7 | –
9070 kPa, x2 = 0.3001 | – | 847 | – | 1.26
9070 kPa, x2 = 0.4999 | – | 848 | – | 1.39
9090 kPa, x2 = 0.4 | – | 847 | – | 1.32
9140 kPa, x2 = 0.1999 | – | 847 | – | 1.19
11900 kPa, x2 = 0.4 | – | 849 | – | 1.36
11910 kPa, x2 = 0.6001 | 859 | – | 1.87 | –
11950 kPa, x2 = 0.4 | 858 | – | 1.63 | –
11960 kPa, x2 = 0.6001 | – | 850 | – | 1.5
11970 kPa, x2 = 0.4999 | – | 850 | – | 1.43
11980 kPa, x2 = 0.3001 | 857 | – | 1.57 | –
11990 kPa, x2 = 0.3001 | – | 849 | – | 1.29
11990 kPa, x2 = 0.8001 | – | 852 | – | 1.72
12000 kPa, x2 = 0.9 | – | 852 | – | 1.79
12010 kPa, x2 = 0.1 | 856 | – | 1.37 | –
12010 kPa, x2 = 0.1999 | 856 | – | 1.47 | –
12010 kPa, x2 = 0.8001 | 860 | – | 2.11 | –
12020 kPa, x2 = 0.1 | – | 847 | – | 1.14
12020 kPa, x2 = 0.1999 | – | 848 | – | 1.22
12020 kPa, x2 = 0.4999 | 858 | – | 1.74 | –
12060 kPa, x2 = 0.6999 | – | 851 | – | 1.6
12070 kPa, x2 = 0.9 | 860 | – | 2.22 | –
12090 kPa, x2 = 0.6999 | 860 | – | 1.99 | –
14960 kPa, x2 = 0.6001 | – | 852 | – | 1.55
14960 kPa, x2 = 0.9 | – | 854 | – | 1.85
14970 kPa, x2 = 0.8001 | 862 | 853 | 2.16 | 1.76
14980 kPa, x2 = 0.6999 | 861 | 853 | 2.03 | 1.65
14990 kPa, x2 = 0.1 | – | 849 | – | 1.18
14990 kPa, x2 = 0.1999 | – | 850 | – | 1.26
15010 kPa, x2 = 0.4 | – | 851 | – | 1.4
15010 kPa, x2 = 0.6001 | 861 | – | 1.92 | –
15020 kPa, x2 = 0.3001 | 859 | 850 | 1.62 | 1.33
15040 kPa, x2 = 0.4999 | 860 | 851 | 1.79 | 1.48
15050 kPa, x2 = 0.1 | 858 | – | 1.41 | –
15050 kPa, x2 = 0.1999 | 858 | – | 1.51 | –
15050 kPa, x2 = 0.9 | 862 | – | 2.28 | –
15090 kPa, x2 = 0.4 | 859 | – | 1.69 | –
